Results reported in PubChem BioAssay (NCI).
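96-well plates; 48 h exposure; 5 concentrations. Endpoints by linear interpolation between flanking doses. Not reached: highest tested concentration assigned. TGI marks complete inhibition of growth.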

Tests used:
Assay in all cases: NCI tumour cell line growth inhibition, 48 h
786-0 renal = system: 786-0 renal
A498 renal = system: A498 renal
A549 NSCLC = system: A549 NSCLC
ACHN renal = system: ACHN renal
CAKI-1 renal = system: CAKI-1 renal
CCRF-CEM leukemia = system: CCRF-CEM leukemia
COLO 205 colon = system: COLO 205 colon
DLD-1 colon = system: DLD-1 colon
DMS 114 small cell lung = system: DMS 114 small cell lung
EKVX NSCLC = system: EKVX NSCLC
HCC-2998 colon = system: HCC-2998 colon
HCT-116 colon = system: HCT-116 colon
HCT-15 colon = system: HCT-15 colon
HL-60(TB) leukemia = system: HL-60(TB) leukemia
HOP-62 NSCLC = system: HOP-62 NSCLC
HT29 colon = system: HT29 colon
K-562 leukemia = system: K-562 leukemia
KM12 colon = system: KM12 colon
KM20L2 colon = system: KM20L2 colon
LOX IMVI melanoma = system: LOX IMVI melanoma
LXFL 529 NSCLC = system: LXFL 529 NSCLC
M14 melanoma = system: M14 melanoma
M19-MEL melanoma = system: M19-MEL melanoma
MALME-3M melanoma = system: MALME-3M melanoma
MOLT-4 leukemia = system: MOLT-4 leukemia
NCI-H226 lung = system: NCI-H226 lung
NCI-H23 lung = system: NCI-H23 lung
NCI-H460 lung = system: NCI-H460 lung
NCI-H522 lung = system: NCI-H522 lung
OVCAR-3 ovarian = system: OVCAR-3 ovarian
OVCAR-4 ovarian = system: OVCAR-4 ovarian
OVCAR-5 ovarian = system: OVCAR-5 ovarian
OVCAR-8 ovarian = system: OVCAR-8 ovarian
RPMI-8226 leukemia = system: RPMI-8226 leukemia
RXF 393 renal = system: RXF 393 renal
SF-268 CNS = system: SF-268 CNS
SF-295 CNS = system: SF-295 CNS
SF-539 CNS = system: SF-539 CNS
SK-MEL-2 melanoma = system: SK-MEL-2 melanoma
SK-MEL-28 melanoma = system: SK-MEL-28 melanoma
SK-MEL-5 melanoma = system: SK-MEL-5 melanoma
SK-OV-3 ovarian = system: SK-OV-3 ovarian
SN12C renal = system: SN12C renal
SNB-19 CNS = system: SNB-19 CNS
SNB-75 CNS = system: SNB-75 CNS
SNB-78 CNS = system: SNB-78 CNS
SR leukemia = system: SR leukemia
TK-10 renal = system: TK-10 renal
U251 CNS = system: U251 CNS
UACC-257 melanoma = system: UACC-257 melanoma
UACC-62 melanoma = system: UACC-62 melanoma
UO-31 renal = system: UO-31 renal
XF 498 CNS = system: XF 498 CNS
DMS 273 small cell lung = system: DMS 273 small cell lung
HOP-18 NSCLC = system: HOP-18 NSCLC
HOP-92 NSCLC = system: HOP-92 NSCLC
IGROV1 ovarian = system: IGROV1 ovarian
SW-620 colon = system: SW-620 colon

Work on Cc1cc(NCCCCCCCNc2cc(C)nc3cc(N)ccc23)c2ccc(N)cc2n1 yielded a TGI (786-0 renal) greater than 100 µM, a TGI (A498 renal) greater than 100 µM and a TGI (A549 NSCLC) greater than 100 µM. It also gave a TGI (ACHN renal) greater than 100 µM, a TGI (CAKI-1 renal) greater than 100 µM and a TGI (CCRF-CEM leukemia) of 64.9 µM. For the same compound, the TGI (COLO 205 colon) was 29.3 µM, the TGI (DLD-1 colon) was greater than 100 µM and the TGI (DMS 114 small cell lung) was 32 µM. The TGI (EKVX NSCLC) was greater than 100 µM, the TGI (HCC-2998 colon) was greater than 100 µM and the TGI (HCT-116 colon) was greater than 100 µM. The TGI (HCT-15 colon) was greater than 100 µM, the TGI (HL-60(TB) leukemia) was 23.9 µM and the TGI (HOP-62 NSCLC) was greater than 100 µM. For the same compound, the TGI (HT29 colon) was greater than 100 µM, the TGI (K-562 leukemia) was 26.1 µM and the TGI (KM12 colon) was 45.1 µM. It also gave a TGI (KM20L2 colon) greater than 100 µM, a TGI (LOX IMVI melanoma) of 45.4 µM and a TGI (LXFL 529 NSCLC) greater than 100 µM. The TGI (M14 melanoma) was greater than 100 µM, the TGI (M19-MEL melanoma) was greater than 100 µM and the TGI (MALME-3M melanoma) was greater than 100 µM. For the same compound, the TGI (MOLT-4 leukemia) was greater than 100 µM, the TGI (NCI-H226 lung) was 78.4 µM and the TGI (NCI-H23 lung) was greater than 100 µM. It also gave a TGI (NCI-H460 lung) greater than 100 µM, a TGI (NCI-H522 lung) of 81.5 µM and a TGI (OVCAR-3 ovarian) greater than 100 µM. For the same compound, the TGI (OVCAR-4 ovarian) was greater than 100 µM, the TGI (OVCAR-5 ovarian) was greater than 100 µM and the TGI (OVCAR-8 ovarian) was greater than 100 µM. For the same compound, the TGI (RPMI-8226 leukemia) was greater than 100 µM, the TGI (RXF 393 renal) was greater than 100 µM and the TGI (SF-268 CNS) was greater than 100 µM. The TGI (SF-295 CNS) was greater than 100 µM, the TGI (SF-539 CNS) was greater than 100 µM and the TGI (SK-MEL-2 melanoma) was greater than 100 µM. For the same compound, the TGI (SK-MEL-28 melanoma) was greater than 100 µM, the TGI (SK-MEL-5 melanoma) was greater than 100 µM and the TGI (SK-OV-3 ovarian) was greater than 100 µM. For the same compound, the TGI (SN12C renal) was greater than 100 µM, the TGI (SNB-19 CNS) was greater than 100 µM and the TGI (SNB-75 CNS) was greater than 100 µM. It also gave a TGI (SNB-78 CNS) greater than 100 µM, a TGI (SR leukemia) of 66.8 µM and a TGI (TK-10 renal) greater than 100 µM. The TGI (U251 CNS) was greater than 100 µM, the TGI (UACC-257 melanoma) was greater than 100 µM and the TGI (UACC-62 melanoma) was greater than 100 µM. The TGI (UO-31 renal) was greater than 100 µM and the TGI (XF 498 CNS) was 66.2 µM.
CC1NOC(=O)C1N=Nc1cccc(Cl)c1 (stereo not given) gave a TGI (786-0 renal) greater than 100 µM, a TGI (A498 renal) of 52.5 µM and a TGI (A549 NSCLC) greater than 100 µM. For the same compound, the TGI (ACHN renal) was greater than 100 µM, the TGI (CAKI-1 renal) was greater than 100 µM and the TGI (CCRF-CEM leukemia) was 57.7 µM. It also gave a TGI (COLO 205 colon) of 55.7 µM, a TGI (DLD-1 colon) greater than 100 µM and a TGI (DMS 114 small cell lung) of 61.7 µM. It also gave a TGI (DMS 273 small cell lung) greater than 100 µM, a TGI (EKVX NSCLC) greater than 100 µM and a TGI (HCC-2998 colon) greater than 100 µM. The TGI (HCT-116 colon) was greater than 100 µM, the TGI (HCT-15 colon) was 42.6 µM and the TGI (HL-60(TB) leukemia) was 56.8 µM. It also gave a TGI (HOP-18 NSCLC) greater than 100 µM, a TGI (HOP-62 NSCLC) greater than 100 µM and a TGI (HOP-92 NSCLC) greater than 100 µM. It also gave a TGI (HT29 colon) of 77 µM, a TGI (IGROV1 ovarian) greater than 100 µM and a TGI (K-562 leukemia) greater than 100 µM. The TGI (KM12 colon) was greater than 100 µM, the TGI (KM20L2 colon) was greater than 100 µM and the TGI (LOX IMVI melanoma) was greater than 100 µM. The TGI (LXFL 529 NSCLC) was greater than 100 µM, the TGI (M14 melanoma) was greater than 100 µM and the TGI (M19-MEL melanoma) was 91.7 µM. For the same compound, the TGI (MALME-3M melanoma) was greater than 100 µM, the TGI (MOLT-4 leukemia) was 86.7 µM and the TGI (NCI-H226 lung) was greater than 100 µM. For the same compound, the TGI (NCI-H23 lung) was greater than 100 µM, the TGI (NCI-H460 lung) was greater than 100 µM and the TGI (NCI-H522 lung) was 62.8 µM. For the same compound, the TGI (OVCAR-3 ovarian) was 60.4 µM, the TGI (OVCAR-4 ovarian) was greater than 100 µM and the TGI (OVCAR-5 ovarian) was greater than 100 µM. The TGI (OVCAR-8 ovarian) was greater than 100 µM, the TGI (RXF 393 renal) was 64.1 µM and the TGI (SF-268 CNS) was 89.9 µM. The TGI (SF-295 CNS) was greater than 100 µM, the TGI (SF-539 CNS) was greater than 100 µM and the TGI (SK-MEL-2 melanoma) was 47.4 µM. The TGI (SK-MEL-28 melanoma) was greater than 100 µM, the TGI (SK-MEL-5 melanoma) was greater than 100 µM and the TGI (SK-OV-3 ovarian) was 96.1 µM. The TGI (SN12C renal) was greater than 100 µM, the TGI (SNB-19 CNS) was greater than 100 µM and the TGI (SNB-75 CNS) was 92.2 µM. For the same compound, the TGI (SNB-78 CNS) was greater than 100 µM, the TGI (SR leukemia) was 71.5 µM and the TGI (SW-620 colon) was 23.4 µM. For the same compound, the TGI (TK-10 renal) was greater than 100 µM, the TGI (U251 CNS) was 60.2 µM and the TGI (UACC-257 melanoma) was greater than 100 µM. It also gave a TGI (UACC-62 melanoma) greater than 100 µM, a TGI (UO-31 renal) greater than 100 µM and a TGI (XF 498 CNS) of 72 µM.
